Reference: patent US9394285B2 (Pfizer Inc., priority 2013, dated 2016)

Target: human AMPK (full-length γ1, β1 and α1 subunits) (Homo sapiens (Human), UniProt Q13131+Q9Y478)
Test: AMPK in vitro biochemical assay (33P-based, SAMS peptide, PP2A dephosphorylation)
Settings: for EC50: activation of phosphorylated AMPK, 33P-ATP, SAMS peptide, PP2A treatment, 4-parameter fit; for Emax: counts as % of positive control wells (enzyme, allosteric activator or AMP, PP2A and substrate), read-out: Maximum
Excerpt: We designed a tricistronic AMPK expression construct that included open reading frames encoding the full-length γ1, β1 and α1 subunits of human AMPK with a ribosome-binding site (RBS) ahead of each coding region and subcloned this into pET-14b expression vector (Novagen, Madison, Wis.) using standard molecular biology techniques. AMPK tricistronic construct was transformed into E. coli BL21-CodonPlus™ (DE3)-RIPL strain (Stratagene) and transformants were selected on LB (Luria-Bertani) agar plates containing ampicillin (100 μg/ml). […] Optical density sample measurements were made on an UltroSpec 2000 spectrophotometer (Pharmacia Biotech) at 600 nm. When the cell density reached ˜0.9 OD, the temperature was reduced to 18° C. and the culture was induced at 18° C. with 0.1 mM Isopropylthiogalactoside (IPTG). […] The cell pellets were aliquoted into four portions, flash frozen in liquid nitrogen and were stored at −80° C. until purification. For purification, frozen cell paste was thawed and resuspended in 50 ml lysis buffer (50 mM Tris, pH 8.0, 150 mM NaCl, 10% glycerol, 2 mM Tris-2-carboxyethyl phosphine (TCEP), 20 mM imidazole and 0.001% Triton X-100). After sonication, insoluble material was removed by centrifugation at 15,000 rpm in a Sorvall® RC5 plus centrifuge for 30 min at 4° C. and the supernatant was loaded onto a 5 ml HisTrap™ HP column (GE Healthcare, Piscataway, N.J.) and washed with five column volumes of lysis buffer. Bound proteins were eluted using an elution buffer containing 300 mM imidazole. Fractions containing AMPK subunits were pooled based on SDS-10% PAGE analysis and dialyzed overnight in dialysis buffer (50 mM Tris, pH 8.0, 150 mM NaCl, 10% glycerol, 2 mM TCEP, and 0.001% Triton X-100). […] The phosphorylated AMPK complex was re-purified on HisTrap™ HP column as before, dialyzed over night in dialysis buffer. The phosphorylated AMPK complex was further purified by gel filtration chromatography with a Superdex 200 HiLoad 16/60 column (GE Healthcare) in SEC buffer (50 mM Tris, pH 8.0, 150 mM NaCl, 10% glycerol, 2 mM TCEP, and 0.001% Triton X-100).
The harvest time (72 hours post infection) was indicated by percent cell viability (to 85-90%) and increased cell diameter (3-4 μm). […] For purification, the cell paste was resuspended in 500 mL lysis buffer (50 mM Tris pH 8.0, 150 mM NaCl, 25 mM imidazole, 10% glycerol, 2 mM MgCl2, 2 mM TCEP+protease inhibitor cocktail. After lysis, cellular debris was removed by centrifugation at 36K×g for 1 hour. The resulting supernatant was filtered at 0.2 micron before applying to a 1 mL nickel charged IMAC column (HisTrap, GE). The bound resin was washed to baseline with 50 CV of 50 mM Tris pH 8.0, 150 mM NaCl, 25 mM imidazole, 10% glycerol, 2 mM MgCl2, 2 mM TCEP before eluting over a 20 CV gradient to 100% with wash buffer containing 500 mM imidazole. Pooled fractions containing PP2A were combined and diluted 10× with 50 mM Tris pH 8.0, 10% glycerol, 1 mM TCEP and applied to a 1 mL AIEX resin (HiTrap QFF, GE). The bound resin was washed with dilution buffer and PP2A was eluted over a 20 CV gradient to 100% 50 mM Tris pH 8.0, 500 mM NaCl, 10% glycerol, 1 mM TCEP and was further diluted 1:1 with 50 mM Tris pH 8.0, 150 mM NaCl, 10% glycerol, and 1 mM TCEP buffer.
The biochemical EC50 (half-maximal concentration required for full activation) of compounds for the activation of AMPK was evaluated by ^33P-based assay using SAMS peptide (commercially available) derived from ACC-1. Twenty μl of phosphorylated AMPK diluted in assay buffer, (50 mM HEPES, 1 mM EGTA, 10 mM MgCl2, 0.25 mM DTT, 0.01% Tween-20, 0.01% BSA (pH 7.5)) was added to 384 well plates containing 1 μL of test compound. Following a fifteen minute room temperature incubation, 10 μL of protein phosphatase PP2A was added to the plate to dephosphorylate pThr172 of AMPK. […] The reaction was terminated after 60 minutes incubation at room temperature by the addition of 15 μL of 2% H3PO4.

Sequence of human AMPK (full-length γ1, β1 and α1 subunits) (Q13131 whole entry): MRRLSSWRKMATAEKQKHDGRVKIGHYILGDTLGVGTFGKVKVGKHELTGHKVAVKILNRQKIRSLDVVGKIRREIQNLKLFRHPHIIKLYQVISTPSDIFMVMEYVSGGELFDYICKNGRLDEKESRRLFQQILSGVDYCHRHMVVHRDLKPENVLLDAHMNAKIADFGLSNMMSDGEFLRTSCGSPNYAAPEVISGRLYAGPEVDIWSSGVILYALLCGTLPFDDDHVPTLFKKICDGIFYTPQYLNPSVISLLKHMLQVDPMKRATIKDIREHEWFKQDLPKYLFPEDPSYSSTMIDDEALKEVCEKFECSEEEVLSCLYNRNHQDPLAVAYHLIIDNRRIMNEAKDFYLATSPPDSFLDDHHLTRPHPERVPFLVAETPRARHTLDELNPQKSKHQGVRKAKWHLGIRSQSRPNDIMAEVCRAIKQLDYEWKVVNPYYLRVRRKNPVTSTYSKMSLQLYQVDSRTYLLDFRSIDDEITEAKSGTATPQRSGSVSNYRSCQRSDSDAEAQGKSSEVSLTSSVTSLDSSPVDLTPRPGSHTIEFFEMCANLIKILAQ
Sequence of human AMPK (full-length γ1, β1 and α1 subunits) (Q9Y478 whole entry): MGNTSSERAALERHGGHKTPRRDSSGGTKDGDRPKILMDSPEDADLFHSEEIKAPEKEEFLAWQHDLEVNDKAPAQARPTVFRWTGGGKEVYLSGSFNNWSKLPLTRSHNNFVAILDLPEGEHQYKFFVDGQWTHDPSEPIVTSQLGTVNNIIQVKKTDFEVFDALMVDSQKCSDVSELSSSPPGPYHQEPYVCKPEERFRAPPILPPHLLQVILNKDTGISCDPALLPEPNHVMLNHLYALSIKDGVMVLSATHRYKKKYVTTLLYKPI
Sequence of human AMPK (full-length γ1, β1 and α1 subunits) (P54619 whole entry partner): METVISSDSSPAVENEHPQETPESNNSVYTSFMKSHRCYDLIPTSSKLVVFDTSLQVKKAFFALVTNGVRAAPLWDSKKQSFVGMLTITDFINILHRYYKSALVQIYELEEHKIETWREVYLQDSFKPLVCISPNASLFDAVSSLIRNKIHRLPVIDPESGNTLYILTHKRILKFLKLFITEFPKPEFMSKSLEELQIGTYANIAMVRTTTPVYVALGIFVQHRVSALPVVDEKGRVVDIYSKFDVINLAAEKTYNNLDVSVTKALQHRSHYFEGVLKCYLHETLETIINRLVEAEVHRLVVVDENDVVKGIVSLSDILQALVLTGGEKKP

Row | SMILES | EC50 | Emax
1 | O=C(O)c1n[nH]c2cc(Cl)c(-c3ccc(C4(CO)CCCC4)cc3)cc12 [Example 127, 6-Chloro-5-(4-(1-(hydroxymethyl)cyclopentyl)phenyl)-1H-indazole-3-carboxylic acid] | 17.2 nM | 81%
2 | COc1cc(-c2cc3c(C(=O)O)c[nH]c3cc2Cl)ccc1C(C)(C)O [Example 56, 6-chloro-5-(4-(2-hydroxypropan-2-yl)-3-methoxyphenyl)-1H-indole-3-carboxylic acid] | 334 nM | 137%
3 | O=C(O)c1n[nH]c2cc(Cl)c(-c3ccc([C@H]4C[C@H](O)C4)cc3)cc12 [Example 126, 6-Chloro-5-(4-((1R,3R)-3-hydroxycyclobutyl)phenyl)-1H-indazole-3-carboxylic acid] | 26.8 nM | 
4 | COC[C@H](C)Oc1ccc(-c2cc3c(C(=O)O)c[nH]c3cc2Cl)cc1 [Example 159, 6-chloro-5-(4-{[(2S)-1-methoxypropan-2-yl]oxy}phenyl)-1H-indole-3-carboxylic acid] | 47.8 nM | 98.6%
5 | O=C(O)c1c[nH]c2cc(F)c(-c3ccc(C4(O)COC4)cc3)c(F)c12 [Example 20, 4,6-difluoro-5-[4-(3-hydroxyoxetan-3-yl)phenyl]-1H-indole-3-carboxylic acid] | 53.6 nM | 62%
6 | COc1cc(-c2cc3c(C(=O)O)c[nH]c3cc2Cl)ccc1[C@H]1C[C@H](O)C1 [Example 146, 6-chloro-5-[4-(trans-3-hydroxycyclobutyl)-3-methoxyphenyl]-1H-indole-3-carboxylic acid] | 35.3 nM | 119%
7 | O=C(O)c1c[nH]c2cc(Cl)c(-c3ccc(CCCO)cc3)cc12 [Example 80, 6-chloro-5-[4-(3-hydroxypropyl)phenyl]-1H-indole-3-carboxylic acid] | 182 nM | 108%
8 | O=C(O)c1n[nH]c2cc(Cl)c(-c3ccc(CCO)cc3)cc12 [Example 109, 6-Chloro-5-(4-(2-hydroxyethyl)phenyl)-1H-indazole-3-carboxylic acid] | 82.3 nM | 94%
9 | COc1ccc(-c2cc3c(C(=O)O)c[nH]c3cc2C#N)cc1 [Example 32, 6-Cyano-5-(4-methoxyphenyl)-1H-indole-3-carboxylic acid] | 570 nM | 97%
10 | O=C(O)c1c[nH]c2cc(F)c(-c3ccc(C4(CO)CCC4)cc3F)cc12 [Example 165, 6-fluoro-5-{2-fluoro-4-[1-(hydroxymethyl)cyclobutyl]phenyl}-1H-indole-3-carboxylic acid] | 31.9 nM | 159%
11 | O=C(O)c1c[nH]c2cc(Cl)c(-c3ccc(OCCCN4CC[C@@H](F)C4)cc3)cc12 [Example 189, 6-chloro-5-(4-{3-[(3R)-3-fluoropyrrolidin-1-yl]propoxy}phenyl)-1H-indole-3-carboxylic acid] | 57.7 nM | 112%
12 | CC(=O)NCCOc1ccc(-c2cc3c(C(=O)O)c[nH]c3cc2Cl)cc1 [Example 10, 5-{4-[2-(acetylamino)ethoxy]phenyl}-6-chloro-1H-indole-3-carboxylicacid] | 69.9 nM | 91%
13 | O=C(O)c1c[nH]c2cc(Cl)c(-c3ccc4c(c3)OC[C@@H](CO)O4)cc12 [Example 87, 6-chloro-5-[(2R)-2-(hydroxymethyl)-2,3-dihydro-1,4-benzodioxin-6-yl]-1H-indole-3-carboxylic acid] | 69.5 nM | 112%
14 | Cc1ccc(-c2cc3c(C(=O)O)c[nH]c3cc2Cl)cc1 [Example 51, 6-chloro-5-(4-methylphenyl)-1H-indole-3-carboxylic acid] | 320 nM | 93%
15 | O=C1COC(c2ccc(-c3cc4c(C(=O)O)c[nH]c4cc3Cl)cc2)CN1 (stereo not shown) [Example 79, 6-chloro-5-[4-(5-oxomorpholin-2-yl)phenyl]-1H-indole-3-carboxylic acid] | 104 nM | 102%
16 | CC(=O)c1ccc(-c2cc3c(C(=O)O)n[nH]c3cc2Cl)cc1 [Example 105, 5-(4-Acetylphenyl)-6-chloro-1H-indazole-3-carboxylic acid] | 122 nM | 84%
17 | O=C(O)c1c[nH]c2cc(F)c(-c3ccc(C4CCCO4)cc3)cc12 (single isomer, unassigned) [Example 150, 6-fluoro-5-[4-(tetrahydrofuran-2-yl)phenyl]-1H-indole-3-carboxylic acid] | 165 nM | 112%
18 | O=C(O)c1c[nH]c2cc(Cl)c(-c3ccc(OCCCC4COC4)cc3)cc12 [Example 157, 6-chloro-5-(4-(3-(oxetan-3-yl)propoxy)phenyl)-1H-indole-3-carboxylic acid] | 50.1 nM | 96.1%
19 | O=C(O)c1c[nH]c2cc(F)c(-c3ccc(OCCO)cc3)c(F)c12 [Example 24, 4,6-difluoro-5-[4-(2-hydroxyethoxy)phenyl]-1H-indole-3-carboxylic acid] | 252 nM | 91%
20 | N#Cc1cc2[nH]cc(C(=O)O)c2cc1-c1ccc(OCCO)cc1 [Example 95, 6-cyano-5-[4-(2-hydroxyethoxy)phenyl]-1H-indole-3-carboxylic acid] | 830 nM | 91%
21 | COc1nc(N2CC[C@@H](O)C2)ccc1-c1cc2c(C(=O)O)c[nH]c2cc1Cl [Example 185, 6-chloro-5-{6-[(3R)-3-hydroxypyrrolidin-1-yl]-2-methoxypyridin-3-yl}-1H-indole-3-carboxylic acid] | 2.9 nM | 106%
22 | COC[C@@H](C)Oc1ccc(-c2cc3c(C(=O)O)c[nH]c3cc2Cl)cc1 [Example 158, 6-chloro-5-(4-{[(2R)-1-methoxypropan-2-yl]oxy}phenyl)-1H-indole-3-carboxylic acid] | 125 nM | 146%
23 | CC(C)(CO)c1ccc(-c2cc3c(C(=O)O)c[nH]c3cc2Cl)cc1 [Example 36, 6-chloro-5-[4-(1-hydroxy-2-methylpropan-2-yl)phenyl]-1H-indole-3-carboxylic acid] | 7.1 nM | 70%
24 | CN1CCC(c2ccc(-c3cc4c(C(=O)O)c[nH]c4cc3Cl)cc2)C1 (stereo not shown) [Example 74, 6-chloro-5-[4-(1-methylpyrrolidin-3-yl)phenyl]-1H-indole-3-carboxylic acid] | 44.3 nM | 110%
25 | NC(=O)Cc1ccc(-c2cc3c(C(=O)O)n[nH]c3cc2Cl)cc1 [Example 123, 5-(4-(2-Amino-2-oxoethyl)phenyl)-6-chloro-1H-indazole-3-carboxylic acid] | 100 nM | 57%
26 | NC(=O)C1(c2ccc(-c3cc4c(C(=O)O)n[nH]c4cc3Cl)cc2)CCC1 [Example 122, 5-(4-(1-Carbamoylcyclobutyl)phenyl)-6-chloro-1H-indazole-3-carboxylic acid] | 160 nM | 75%
27 | O=C(O)c1c[nH]c2cc(F)c(-c3ccc(C4CCCO4)cc3)c(F)c12 (single isomer, unassigned) [Example 152, 4,6-difluoro-5-[4-(tetrahydrofuran-2-yl)phenyl]-1H-indole-3-carboxylic acid] | 16.7 nM | 
